What all share (assay type): cell-based, human
Assay [1] has as its system PC-3 cells. The experiment in a line: lipid raft isolation (sucrose gradient) and Western blot of raft-associated kinases. To be noted: PC-3, 6 mM p-TSA, 2 h. An excerpt:
(§1) Lipid rafts are plasma membranes of cells containing glycosphingolipids and a number of receptors arranged in specific glycolipoprotein microdomains which serve as organizing centers to gather signaling molecules, membrane fluid and protein trafficking for a variety of cellular processes. […] To examine the effect of lipid raft on p-TSA action, lipid rafts were isolated from whole cells by sucrose gradient fractionation with subsequent analysis of several serine/threonine kinases localization in raft fractions by immunoblotting. The detailed method for lipid raft isolation was performed as follows. Lipid rafts were isolated using lysis conditions and centrifugation on discontinuous sucrose gradients. Briefly, after the treatment of cells with or without p-TSA, the cells were washed with ice-cold PBS and lysed for 30 min on ice with 1% Triton X-100 in TNEV buffer (10 mM Tris-HCl, pH 7.5, 150 mM NaCl, 5 mM EDTA, 1 mM Na3VO4 and 1 mM PMSF). Cells were homogenized with 15 strokes with a Biovision tissue homogenizer. After centrifuging at 200 g for 8 min, the nuclei and cellular debris were pelleted and 400 μl supernatant was mixed with 400 μl 85% (w/v) sucrose in TNEV buffer, and then transferred to the bottom of a Beckman 13×51 mm centrifuge tube. The diluted lysate was overlaid with 2.4 ml 35% (w/v) sucrose in TNEV buffer and finally 1.4 ml 5% (w/v) sucrose in TNEV buffer. The samples were centrifuged in an SW55 rotor at 200,000 g for 18 h at 4° C. in a Beckman Optima L100K ultracentrifuge (Beckman Instruments, Palo Alto, Calif., United States). Then, fractions in each volume of 350 μl were collected from the top gradient. 15 μl of each fraction was subjected to Western blot analysis to determine the location of target proteins in the discontinuous sucrose gradient.
Background: Immunoblotting shows a protein as a band on a membrane.

Assay [2] has as its system DU-145 cells. Described as above. Conditions: DU-145, 6 mM p-TSA, 2 h.
From the text: as §1

A further assay relates to normal prostate cells. Briefly: SRB assay, anti-proliferative effect. To be noted: primary prostate cells, compared with CRPC cells, FIG. 1A. How it is done:
Two castration-resistant prostate cancer (CRPC) cell lines of PC-3 and DU-145 were cultured in RPMI 1640 medium with 5% FBS (v/v), penicillin (100 units/ml) and streptomycin (100 μg/ml). Cultures were maintained in a 37° C. incubator with 5% CO2, and adherent cultures were passaged using 0.05% trypsin-EDTA when they reached about 80% confluence. Prostate cells were from human tissue samples which were obtained following informed consent of the donors and after full review by the Ethics Review Committee at National Taiwan University Hospital. The prostate specimens were from males by transurethral resection of the prostate. All patients with prostatism histories were diagnosed to have benign prostate hyperplasia by rectal digital examination, transrectal sonography of prostate and urodynamic studies. […] SRB assay is an accurate and reproducible assay based upon quantitative SRB staining of cellular proteins, and the process for SRB assay was performed as follows. […] The absorbance of SRB was measured at a wavelength of 515 nm at the time of p-TSA addition (hereinafter referred to as time zero, TZ), and after additional incubation of DMSO (hereinafter referred to as control growth, CTL) or p-TSA (hereinafter referred to as Tx). The percentage of cell growth inhibition was calculated by the formula of [1−(Tx−TZ)/(CTL−TZ)]×100%. […]
For orientation: In SRB staining, fixed cells bind dye roughly in proportion to their protein.

In assay [3] the test system is PC-3 cells. The experiment in a line: propidium iodide staining, cell cycle distribution by flow cytometry. To be noted: PC-3, 24 h, FIG. 2A. The protocol: (§2) Flow cytometric analysis was performed as follows. Cells were harvested by trypsinization, fixed with 70% (v/v) alcohol at 4° C. for 30 min and washed with PBS. After centrifugation, the cells were incubated in phosphate-citric acid buffer (0.2 mol/l NaHPO4, 0.1 mol/l citric acid, pH 7.8) for 30 min at room temperature. The cells were then centrifuged and resuspended with 0.5 ml propidium iodide (PI) solution containing Triton X-100 (0.1% v/v), RNase (100 μg/ml) and PI (80 μg/ml). DNA content was analyzed with the FACScan and CellQuest software (Becton Dickinson, Mountain View, Calif., United States).

The test system of assay [4] is DU-145 cells. The assay is described as above. To be noted: DU-145, 24 h, FIG. 2A. How it is done:
as §2

For the molecule `Cc1ccc(S(N)(=O)=O)cc1` [p-TSA, para-toluenesulfonamide], in the assay on PC-3 cells [1], the “expressions of raft-associated total and phosphorylated kinases (Akt, mTOR, p70S6K)” value is “decreased expressions”; the “raft-associated phosphorylated p70S6K expression” value was “completely abolished”. Moreover, in the assay on DU-145 cells [2], the “expressions of raft-associated total and phosphorylated kinases (Akt, mTOR, p70S6K)” value is listed as “decreased expressions”; the “raft-associated phosphorylated p70S6K expression” value is given as “completely abolished”. In addition, in the assay on normal prostate cells, the “anti-proliferative activity in normal prostate cells” value is given as “lower anti-proliferative activity”. Besides, in the assay with PC-3 cells [3], the cell apoptosis result was “accelerated cell apoptosis”; the “distribution of cell populations in cell cycle phases” value was “accumulation of both PC-3 cells and DU-145 cells in G1 phase”. For the same molecule, in the assay on DU-145 cells [4], the cell apoptosis entry was “accelerated cell apoptosis”; the “distribution of cell populations in cell cycle phases” value was “accumulation of both PC-3 cells and DU-145 cells in G1 phase”.

Values taken from US20200338028A1, “BENZENESULFONAMIDE DERIVATIVES AND METHOD FOR MODULATING LIPID RAFT” (Gongwin Biopharm Co., Ltd., priority 2017, published 2020).
